Reference: patent publication US11285127B2, “Compositions and methods for lowering triglycerides without raising LDL-C levels in a subject on concomitant statin therapy” (Amarin Pharmaceuticals Ireland Limited, priority 2013, dated 2022)

Legend:
[1] = system: patients with fasting triglyceride levels >200 mg/dl and <500 mg/dl despite statin therapy; test: 12-week study: lipoprotein associated phospholipase A2 (Lp-PLA2); format: in vivo, human; details: MITT; for Lp-PLA2 Percent change from Baseline Median (IQR): Week 12 endpoint; for Lp-PLA2 Difference from placebo Estimated median: percent change from baseline to Week 12 endpoint
Excerpt: (§1) Parameters (a)-(z) can be measured in accordance with any clinically acceptable methodology. For example, triglycerides, total cholesterol, HDL-C and fasting blood sugar can be sample from serum and analyzed using standard photometry techniques. VLDL-TG, LDL-C and VLDL-C can be calculated or determined using serum lipoprotein fractionation by preparative ultracentrifugation and subsequent quantitative analysis by refractometry or by analytic ultracentrifugal methodology. Apo A1, Apo B and hsCRP can be determined from serum using standard nephelometry techniques. Lipoprotein (a) can be determined from serum using standard turbidimetric immunoassay techniques. LDL particle number and particle size can be determined using nuclear magnetic resonance (NMR) spectrometry. Remnants lipoproteins and LDL-phospholipase A2 can be determined from EDTA plasma or serum and serum, respectively, using enzymatic immunoseparation techniques. Oxidized LDL, intercellular adhesion molecule-1 and interleukin-2 levels can be determined from serum using standard enzyme immunoassay techniques. These techniques are described in detail in standard textbooks, for example Tietz Fundamentals of Clinical Chemistry, 6th Ed. (Burtis, Ashwood and Borter Eds.), WB Saunders Company.
(§2) A multi-center, placebo-controlled, randomized, double-blind, 12-week study was performed to evaluate the efficacy and safety of >96% E-EPA in patients with fasting triglyceride levels >200 mg/dl and <500 mg/dl despite statin therapy (the mean of two qualifying entry values needed to be >185 mg/dl and at least one of the values needed to be >200 mg/dl). The primary objective of the study was to determine the efficacy of >96% E-EPA 2 g daily and 4 g daily, compared to placebo, in lowering fasting TG levels in patients with high risk for cardiovascular disease and with fasting TG levels 200 mg/dl and <500 mg/dl, despite treatment to LDL-C goal on statin therapy.
(§3) The secondary objectives of this study were the following: • 1. To determine the safety and tolerability of >96% E-EPA 2 g daily and 4 g daily; • 2. To determine the effect of >96% E-EPA on lipid and apolipoprotein profiles including total cholesterol (TC), non-high-density lipoprotein cholesterol (non-HDL-C), low density lipoprotein cholesterol (LDL-C), high density lipoprotein cholesterol (HDL-C), and […]; • 3. To determine the effect of >96% E-EPA on lipoprotein associated phospholipase A2 (Lp-PLA2) from baseline to week 12; • 4. To determine the effect of >96% E-EPA on low-density lipoprotein (LDL) particle number and size; • 5. To determine the effect of >96% E-EPA on oxidized LDL; • 6. To determine the effect of >96% E-EPA on fasting plasma glucose (FPG) and hemoglobin A1c (HbA1c); • 7. To determine the effect of >96% E-EPA on insulin resistance; • 8. To determine the effect of >96% E-EPA on high-sensitivity C-reactive protein (hsCRP); • 9. To determine the effects of >96% E-EPA 2 g daily and 4 g daily on the incorporation of fatty acids into red blood cell membranes and into plasma phospholipids; • 10. To explore the relationship between baseline fasting TG levels and the reduction in fasting TG levels; and • 11. To explore the relationship between changes of fatty acid concentrations in plasma and red blood cell membranes, and the reduction in fasting TG levels.
(§4) The primary efficacy variable for the double-blind treatment period was percent change in TG from baseline to Week 12 endpoint. […]

[2] = system: patients with fasting triglyceride levels >200 mg/dl and <500 mg/dl despite statin therapy; test: 12-week study: glucose metabolism (FPG, HbA1c, insulin, HOMA-IR); format: in vivo, human; details: MITT; for Fasting plasma glucose Percent change from Baseline Median (IQR) / HOMA-IR Percent change from Baseline Median (IQR) / HbAlc Percent change from Baseline Median (IQR) / Insulin Percent change from Baseline Median (IQR): Week 12 EP; for Fasting plasma glucose Percent change from Baseline Median (IQR) / HOMA-IR Percent change from Baseline Median (IQR) / HbAlc Percent change from Baseline Median (IQR) / Insulin Percent change from Baseline Median (IQR) / Fasting plasma glucose Difference from placebo Estimated median / HOMA-IR Difference from placebo Estimated median / HbAlc Difference from placebo Estimated median / Insulin Difference from placebo Estimated median: ANCOVA; for Fasting plasma glucose Difference from placebo Estimated median / HOMA-IR Difference from placebo Estimated median / HbAlc Difference from placebo Estimated median / Insulin Difference from placebo Estimated median: change from baseline to Week 12 EP
Excerpt: as §1, §2, §3, §4

CC/C=C\C/C=C\C/C=C\C/C=C\C/C=C\CCCC(=O)OCC [AMR101, ethyl eicosapentaenoate]
Lp-PLA2 Week 12 EP Median (IQR) ([1]; AMR101 2 g/d + statin): 183.5 (57.5) ng/mL
Lp-PLA2 Percent change from Baseline Median (IQR) ([1]; AMR101 2 g/d + statin): −1.8 (23.1) %
Lp-PLA2 Difference from placebo Estimated median ([1]; AMR101 2 g/d + statin): −8.0%
Lp-PLA2 Week 12 EP Median (IQR) ([1]; AMR101 4 g/d + statin): 160.0 (57.0) ng/mL
Lp-PLA2 Percent change from Baseline Median (IQR) ([1]; AMR101 4 g/d + statin): −12.8 (18.5) %
Lp-PLA2 Difference from placebo Estimated median ([1]; AMR101 4 g/d + statin): −19.0%
Fasting plasma glucose Week 12 EP Median (IQR) ([2]; AMR101 2 g/d + statin): 138.0 (44.9) mg/dL
HOMA-IR Week 12 EP Median (IQR) ([2]; AMR101 2 g/d + statin): 6.4 (4.5)
HbAlc Week 12 EP Median (IQR) ([2]; AMR101 2 g/d + statin): 6.8 (1.2) %
Insulin Week 12 EP Median (IQR) ([2]; AMR101 2 g/d + statin): 18.6 (11.0) μIU/mL
Fasting plasma glucose Percent change from Baseline Median (IQR) ([2]; AMR101 2 g/d + statin): 3.6 (2.1) %
HOMA-IR Percent change from Baseline Median (IQR) ([2]; AMR101 2 g/d + statin): −0.6 (0.4) %
HbAlc Percent change from Baseline Median (IQR) ([2]; AMR101 2 g/d + statin): 0.2 (0.04) %
Insulin Percent change from Baseline Median (IQR) ([2]; AMR101 2 g/d + statin): −1.2 (0.9) %
Fasting plasma glucose Difference from placebo Estimated median ([2]; AMR101 2 g/d + statin): −0.6 (3.0)
HOMA-IR Difference from placebo Estimated median ([2]; AMR101 2 g/d + statin): −0.1 (0.5)
HbAlc Difference from placebo Estimated median ([2]; AMR101 2 g/d + statin): −0.0 (0.05)
Insulin Difference from placebo Estimated median ([2]; AMR101 2 g/d + statin): −0.1 (1.3)
Fasting plasma glucose Week 12 EP Median (IQR) ([2]; AMR101 4 g/d + statin): 141.9 (51.1) mg/dL
HOMA-IR Week 12 EP Median (IQR) ([2]; AMR101 4 g/d + statin): 6.9 (6.7)
HbAlc Week 12 EP Median (IQR) ([2]; AMR101 4 g/d + statin): 6.9 (1.1) %
Insulin Week 12 EP Median (IQR) ([2]; AMR101 4 g/d + statin): 19.0 (16.2) μIU/mL
Fasting plasma glucose Percent change from Baseline Median (IQR) ([2]; AMR101 4 g/d + statin): 8.9 (2.1) %
HOMA-IR Percent change from Baseline Median (IQR) ([2]; AMR101 4 g/d + statin): −0.1 (0.4) %
HbAlc Percent change from Baseline Median (IQR) ([2]; AMR101 4 g/d + statin): 0.3 (0.04) %
Insulin Percent change from Baseline Median (IQR) ([2]; AMR101 4 g/d + statin): −1.1 (0.9) %
Fasting plasma glucose Difference from placebo Estimated median ([2]; AMR101 4 g/d + statin): 4.7 (3.0)
HOMA-IR Difference from placebo Estimated median ([2]; AMR101 4 g/d + statin): 0.3 (0.6)
HbAlc Difference from placebo Estimated median ([2]; AMR101 4 g/d + statin): 0.1 (0.05)
Insulin Difference from placebo Estimated median ([2]; AMR101 4 g/d + statin): 0.0 (1.3)
